The values that follow come from the NIST ThermoML archive (doi:10.1016/j.jct.2015.02.024).

The nature of the series: activity coefficient (dimensionless); of the first substance listed, at infinite dilution; xn = mol fraction of the nth substance listed. As to conditions: 101 kPa, Liquid, Chromatography, x1 = 0.

± gives the expanded uncertainty stated by the source.

On to `CCO` [ethanol] + C[N+]1(CCCO)CCOCC1.O=S(=O)([N-]S(=O)(=O)C(F)(F)F)C(F)(F)F, for which the activity coefficient was found to be 1.4 ± 0.09 (318.15 K); 1.37 ± 0.09 (328.15 K); 1.34 ± 0.09 (338.15 K); 1.3 ± 0.08 (348.15 K); 1.28 ± 0.08 (358.15 K); 1.25 ± 0.08 (368.15 K).
`CCC(C)CC` [3-methylpentane] + C[N+]1(CCCO)CCOCC1.O=S(=O)([N-]S(=O)(=O)C(F)(F)F)C(F)(F)F: the activity coefficient runs as follows: (298.15 K) 273 ± 19; (308.15 K) 201 ± 14; (318.15 K) 152 ± 10.
On to `Cc1ccccc1C` [1,2-dimethylbenzene] + C[N+]1(CCCO)CCOCC1.O=S(=O)([N-]S(=O)(=O)C(F)(F)F)C(F)(F)F, for which the activity coefficient is, setting by setting: (318.15 K) 5.73 ± 0.39; (328.15 K) 5.76 ± 0.39; (338.15 K) 5.78 ± 0.39; (348.15 K) 5.81 ± 0.4; (358.15 K) 5.83 ± 0.4; (368.15 K) 5.86 ± 0.4.
Regarding `CCc1ccccc1` [ethylbenzene] + C[N+]1(CCCO)CCOCC1.O=S(=O)([N-]S(=O)(=O)C(F)(F)F)C(F)(F)F, the activity coefficient by setting is: (318.15 K) 7.33 ± 0.5; (328.15 K) 7.28 ± 0.5; (338.15 K) 7.22 ± 0.49; (348.15 K) 7.18 ± 0.49; (358.15 K) 7.13 ± 0.49; (368.15 K) 7.09 ± 0.48.
For the molecule `CCC(=O)OC` [methyl propanoate] + C[N+]1(CCCO)CCOCC1.O=S(=O)([N-]S(=O)(=O)C(F)(F)F)C(F)(F)F, the activity coefficient stood at 1.45 ± 0.1 (318.15 K); 1.51 ± 0.1 (328.15 K); 1.57 ± 0.1 (338.15 K); 1.63 ± 0.11 (348.15 K); 1.68 ± 0.11 (358.15 K); 1.74 ± 0.12 (368.15 K).
`Cc1ccccc1` [toluene] + C[N+]1(CCCO)CCOCC1.O=S(=O)([N-]S(=O)(=O)C(F)(F)F)C(F)(F)F: the activity coefficient (318.15 K) stood at 4.03 ± 0.27; the activity coefficient (328.15 K) is 4.08 ± 0.28; the activity coefficient (338.15 K) worked out at 4.11 ± 0.28; the activity coefficient (348.15 K) was determined as 4.16 ± 0.28; the activity coefficient (358.15 K) amounted to 4.19 ± 0.29; the activity coefficient (368.15 K) was found to be 4.22 ± 0.29.
In the case of `C1CCCCCC1` [cycloheptane] + C[N+]1(CCCO)CCOCC1.O=S(=O)([N-]S(=O)(=O)C(F)(F)F)C(F)(F)F, the activity coefficient was found to be 82.8 ± 5.7 (318.15 K); 71 ± 4.9 (328.15 K); 62.6 ± 4.3 (338.15 K); 54.5 ± 3.7 (348.15 K); 47.2 ± 3.2 (358.15 K); 43 ± 2.9 (368.15 K).
In the case of `CC(C)=O` [acetone] + C[N+]1(CCCO)CCOCC1.O=S(=O)([N-]S(=O)(=O)C(F)(F)F)C(F)(F)F, the activity coefficient is 0.486 ± 0.037 (318.15 K); 0.517 ± 0.039 (328.15 K); 0.543 ± 0.04 (338.15 K); 0.572 ± 0.041 (348.15 K); 0.596 ± 0.042 (358.15 K); 0.63 ± 0.04 (368.15 K).
`CCOC(C)=O` [ethyl acetate] + C[N+]1(CCCO)CCOCC1.O=S(=O)([N-]S(=O)(=O)C(F)(F)F)C(F)(F)F: the activity coefficient stood at 1.5 ± 0.1 (318.15 K); 1.56 ± 0.1 (328.15 K); 1.61 ± 0.11 (338.15 K); 1.66 ± 0.11 (348.15 K); 1.7 ± 0.11 (358.15 K); 1.77 ± 0.12 (368.15 K).
As for `COC(C)(C)C` [2-methoxy-2-methylpropane] + C[N+]1(CCCO)CCOCC1.O=S(=O)([N-]S(=O)(=O)C(F)(F)F)C(F)(F)F, the activity coefficient came out at 4.94 ± 0.34 (318.15 K); 5.07 ± 0.35 (328.15 K); 5.22 ± 0.36 (338.15 K); 5.35 ± 0.36 (348.15 K); 5.45 ± 0.37 (358.15 K); 5.58 ± 0.38 (368.15 K).
With `C=CCCCCCC` [oct-1-ene] + C[N+]1(CCCO)CCOCC1.O=S(=O)([N-]S(=O)(=O)C(F)(F)F)C(F)(F)F, the activity coefficient by setting is: (318.15 K) 133 ± 9; (328.15 K) 117 ± 8; (338.15 K) 106 ± 7; (348.15 K) 94.6 ± 6.5; (358.15 K) 85.2 ± 5.8; (368.15 K) 77.2 ± 5.3.
With `C#CCCC` [1-pentyne] + C[N+]1(CCCO)CCOCC1.O=S(=O)([N-]S(=O)(=O)C(F)(F)F)C(F)(F)F, the activity coefficient came to 7.77 ± 0.53 (318.15 K); 7.48 ± 0.51 (328.15 K); 7.24 ± 0.49 (338.15 K); 6.99 ± 0.48 (348.15 K); 6.79 ± 0.46 (358.15 K); 6.63 ± 0.45 (368.15 K).
For `C=Cc1ccccc1` [styrene] + C[N+]1(CCCO)CCOCC1.O=S(=O)([N-]S(=O)(=O)C(F)(F)F)C(F)(F)F, the activity coefficient by setting is: (318.15 K) 3.45 ± 0.23; (328.15 K) 3.51 ± 0.24; (338.15 K) 3.58 ± 0.24; (348.15 K) 3.66 ± 0.25; (358.15 K) 3.72 ± 0.25; (368.15 K) 3.78 ± 0.26.
`C1CCCCCCC1` [cyclooctane] + C[N+]1(CCCO)CCOCC1.O=S(=O)([N-]S(=O)(=O)C(F)(F)F)C(F)(F)F: the activity coefficient came out at 110 ± 8 (318.15 K); 93.7 ± 6.4 (328.15 K); 83.6 ± 5.7 (338.15 K); 71.9 ± 4.9 (348.15 K); 64.4 ± 4.4 (358.15 K); 58.6 ± 4 (368.15 K).
With `COC(C)=O` [methyl ethanoate] + C[N+]1(CCCO)CCOCC1.O=S(=O)([N-]S(=O)(=O)C(F)(F)F)C(F)(F)F, the activity coefficient (318.15 K) is 0.926 ± 0.059; the activity coefficient (328.15 K) was determined as 0.971 ± 0.061; the activity coefficient (338.15 K) was 1.02 ± 0.06; the activity coefficient (348.15 K) came to 1.06 ± 0.07; the activity coefficient (358.15 K) is 1.1 ± 0.07; the activity coefficient (368.15 K) came out at 1.14 ± 0.07.
For the molecule `CCCC(=O)OC` [methyl butanoate] + C[N+]1(CCCO)CCOCC1.O=S(=O)([N-]S(=O)(=O)C(F)(F)F)C(F)(F)F, the activity coefficient runs as follows: (318.15 K) 2.41 ± 0.16; (328.15 K) 2.48 ± 0.17; (338.15 K) 2.56 ± 0.17; (348.15 K) 2.62 ± 0.18; (358.15 K) 2.68 ± 0.18; (368.15 K) 2.75 ± 0.19.
On to `CC1CCCCC1` [methylcyclohexane] + C[N+]1(CCCO)CCOCC1.O=S(=O)([N-]S(=O)(=O)C(F)(F)F)C(F)(F)F, for which the activity coefficient is, setting by setting: (318.15 K) 102 ± 7; (328.15 K) 84.7 ± 5.8; (338.15 K) 73.3 ± 5; (348.15 K) 64.4 ± 4.4; (358.15 K) 55 ± 3.8; (368.15 K) 49.1 ± 3.4.
Regarding `CC(C)CO` [2-methyl-1-propanol] + C[N+]1(CCCO)CCOCC1.O=S(=O)([N-]S(=O)(=O)C(F)(F)F)C(F)(F)F, the activity coefficient is, setting by setting: (318.15 K) 3.25 ± 0.22; (328.15 K) 3.08 ± 0.21; (338.15 K) 2.94 ± 0.2; (348.15 K) 2.78 ± 0.19; (358.15 K) 2.65 ± 0.18; (368.15 K) 2.54 ± 0.17.
As to `CCC(C)(C)OC` [2-methoxy-2-methylbutane] + C[N+]1(CCCO)CCOCC1.O=S(=O)([N-]S(=O)(=O)C(F)(F)F)C(F)(F)F, the activity coefficient is, setting by setting: (318.15 K) 8.7 ± 0.59; (328.15 K) 8.75 ± 0.6; (338.15 K) 8.8 ± 0.6; (348.15 K) 8.86 ± 0.6; (358.15 K) 8.89 ± 0.61; (368.15 K) 8.93 ± 0.61.
Regarding `C#CCCCCC` [1-heptyne] + C[N+]1(CCCO)CCOCC1.O=S(=O)([N-]S(=O)(=O)C(F)(F)F)C(F)(F)F, the activity coefficient by setting is: (318.15 K) 20 ± 1.4; (328.15 K) 19.2 ± 1.3; (338.15 K) 18.4 ± 1.3; (348.15 K) 17.6 ± 1.2; (358.15 K) 16.9 ± 1.2; (368.15 K) 16.3 ± 1.1.
